Measurements taken from patent US5714501A, “Piperidine derivatives” (priority 1995, dated 1998).
pKd: −log10 of the molar value. Where two headings read alike, the source gives them in different places.

Legend:
[1] = target: T1, histamine H1 receptors (Cavia porcellus, UniProt P31389); experiment: Inhibition of histamine-induced contraction of isolated guinea-pig ileum; details: 30 min incubation with compound, 37° C.; for Kb: read-out: activity on histamine H1 receptors, pA2 (functional) (converted)
T1 construct: guinea-pig cerebellum membrane proteins; from tissue; host or cells: guinea-pig cerebellum membranes
Procedure: (§1) (1) Inhibition of histamine-or LTD4 -induced contraction
(§2) The first three dose-response experiments are performed by adding histamine or leukotriene D4 cumulatively to the organ bath. After adequate washing, the ileal strip is incubated with the testing compound for 30 min. The dose-response experiment is then conducted again. The dissociation constant (Kb) of the receptor-antagonist complex is used as the parameter to indicate the potency of the testing compound and is calculated according to the Cheng-Prusoff equation.

[2] = target: T1, histamine H1 receptors; experiment: Inhibition of [3H]mepyramine binding to guinea-pig cerebellum membranes (and saturation experiment); details: 0.5 nM [3H]mepyramine, pH 7.5, 37° C., 30 min
Procedure: The method is based on that described previously. […] The reaction was stopped by the addition of 5 ml ice-cold phosphate buffer and followed by immediate filtration through Whatman GF/C filters. The filters were washed twice with about 20 ml cold buffer. The retained radioactivity was determined by a liquid scintillation counter after addition of 5 ml scintillation liquid.
In the saturation experiment, 10^-4 MR(-)dimethindene was used to define the non-specific binding.

[3] = target: T2, leukotriene D4 receptors (Cavia porcellus, UniProt Q2NNR5); experiment: Inhibition of [3H]LTD4 binding to guinea-pig lung membranes (and saturation experiment); parameters: guinea-pig lung membrane proteins; from tissue; host or cells: guinea-pig lung membranes
T2 sequence (Q2NNR5 1-340): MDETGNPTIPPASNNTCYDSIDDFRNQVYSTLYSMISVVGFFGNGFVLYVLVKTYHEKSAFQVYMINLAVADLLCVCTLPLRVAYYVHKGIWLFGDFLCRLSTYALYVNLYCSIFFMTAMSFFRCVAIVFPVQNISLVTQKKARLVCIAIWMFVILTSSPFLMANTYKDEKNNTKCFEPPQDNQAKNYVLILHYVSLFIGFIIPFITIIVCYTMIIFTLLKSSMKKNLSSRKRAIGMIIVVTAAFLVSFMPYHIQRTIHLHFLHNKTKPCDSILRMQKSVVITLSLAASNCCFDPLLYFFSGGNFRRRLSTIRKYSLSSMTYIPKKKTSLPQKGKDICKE
Procedure: The method is a modification of that described in the literature*. […] The piperazine-N,N'-bis(2-ethanesulfonic)acid buffer contains 10 mM CaCl2, 10 mM MgCl2, 50 mM NaCl, 2 mM cysteine and 2 mM glycine. The reaction was terminated by the addition of 5 ml ice-cold tris-HCl/NaClbuffer (10 mM/, pH 7.5). The mixture was immediately filtered under vacuum (Whatman GF/C filters) and the filters was washed once with 20 ml ice-cold buffer. The retained radioactivity was determined by a liquid scintillation counter.
In the saturation experiment, 2 μM LTD4 was used to define the non-specific binding.

[4] = target: T2, leukotriene D4 receptors; experiment: Inhibition of LTD4-induced contraction of isolated guinea-pig ileum; parameters: A piece of ileum (about 2 cm length) isolated from guinea-pigs; from tissue; host or cells: guinea-pig ileum
Procedure: as §1, §2

[5] = 0.2 nM [3H]-LTD4, guinea-pig lung membranes, pH 7.5, 22° C., 30 min
[6] = guinea-pig ileum, LTD4-induced contraction, 30 min incubation with compound, 37° C., read-out: activity on leukotriene D4 receptors, pA2 (functional) (converted)

T1 sequence (P31389 whole entry): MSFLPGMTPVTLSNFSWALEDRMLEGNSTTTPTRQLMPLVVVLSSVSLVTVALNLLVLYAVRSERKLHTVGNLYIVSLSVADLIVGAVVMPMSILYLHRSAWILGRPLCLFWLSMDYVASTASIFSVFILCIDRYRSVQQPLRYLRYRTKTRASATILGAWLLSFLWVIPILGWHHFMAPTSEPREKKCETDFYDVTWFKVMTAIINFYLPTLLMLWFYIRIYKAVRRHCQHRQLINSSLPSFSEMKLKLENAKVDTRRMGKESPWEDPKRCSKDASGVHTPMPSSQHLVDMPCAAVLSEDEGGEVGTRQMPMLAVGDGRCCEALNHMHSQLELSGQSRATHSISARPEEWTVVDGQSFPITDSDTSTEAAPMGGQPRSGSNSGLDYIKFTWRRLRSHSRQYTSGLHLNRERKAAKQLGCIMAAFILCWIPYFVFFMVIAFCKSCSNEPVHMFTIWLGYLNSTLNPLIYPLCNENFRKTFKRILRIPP

Compound | Kb [1] [nM] | pKd [2] | pKd [3, 5] | Kb [4, 6] [nM] | further results
O=C(N[C@@H](CN1CCC(=C2c3ccccc3C=Cc3ccccc32)CC1)C(=O)O)OCc1ccccc1 [Example 6, (S)-2-Benzyloxycarbonylamino-3-[4-(5H-dibenzo[a,d]cyclohepten-5-ylidene)piperidin-1-yl]propionic acid] | 42.7 | 6.83 |  |  | inhibition at 10 µM ([3]; drug at the concentration of 10^-5 M, guinea-pig receptor preparations): 28%
O=C(N[C@@H](CN1CCC(=C2c3ccccc3CCc3ccccc32)CC1)C(=O)O)OCc1ccccc1 [Example 7, (S)-2-Benzyloxycarbonylamino-3-[4-(10,11-dihydro-5H-dibenzo[a,d]cyclohepten-5-ylidene)-piperidin-l-yl]propionic acid] | 33.1 | 6.06 | 5.17 | 1120 | 
O=C(N[C@H](CN1CCC(=C2c3ccccc3CCc3ccccc32)CC1)C(=O)O)OCc1ccccc1 [Example 8, (R)-2-Benzyloxycarbonylamino-3-[4-(10,11-dihydro-5H-dibenzo[a,d]-cyclohepten-5-ylidene)piperidin-1-yl]propionic acid] | 10 | 6.39 | 5.81 | 141 | 
CCCc1c(OCC(O)COc2ccc3c(=O)cc(C(=O)O)oc3c2CCC)ccc(C(C)=O)c1O (stereo not shown) [FPL55712, reference compound] |  |  |  |  | activity on histamine H1 receptors, pA2 (functional) [1]: not active; activity on histamine H1 receptors, KD (binding) [2]: not active; Kb [4]: 120 nM
CC(C)(C)c1ccc(C(O)CCCN2CCC(C(O)(c3ccccc3)c3ccccc3)CC2)cc1 (stereo not shown) [terfenadine, reference compound] |  |  |  |  | activity on leukotriene D4 receptors, KD (binding) [3, 5]: not active; activity on leukotriene D4 receptors, pA2 (functional) ([4]; guinea-pig ileum, LTD4-induced contraction, 30 min incubation with compound, 37° C.): not active
